Assay results from US7989649B2, “Tumor imaging compounds” (Emory University, priority 2002, dated 2011).

Assay: Rodent biodistribution study in normal Fischer rats
Assay type: in vivo, rat
Conditions: for Tissue distribution of radioactivity, Blood / Tissue distribution of radioactivity, Bone / Tissue distribution of radioactivity, Brain / Tissue distribution of radioactivity, Heart / Tissue distribution of radioactivity, Kidney / Tissue distribution of radioactivity, Liver / Tissue distribution of radioactivity, Lung / Tissue distribution of radioactivity, Muscle / Tissue distribution of radioactivity, Pancreas / Tissue distribution of radioactivity, Spleen / Tissue distribution of radioactivity, Testis: normal Fischer rats; for brain uptake of radioactivity: all time points
Description: Rodent biodistribution studies. The same procedures were used to evaluate [^18F]5a and [^18F]5b separately in rodents. The tissue distribution of radioactivity was determined in 16 normal male Fischer 344 rats (200-250 g) after intravenous injection of ˜85 μCi of [^18F]5a or [^18F]5b in 0.3 mL of sterile water. The animals were allowed food and water ad libitum before the experiment. Following anesthesia induced with an intramuscular injection of 0.1 mL/100 g of a 1:1 ketamine ([…]):xylazine (20 mg/mL) solution, the radiolabeled amino acid was injected into the rats via tail vein catheters. Groups of four rats were killed at 5 minutes, 30 minutes, 60 minutes and 120 minutes after injection of the dose. The animals were dissected, and selected tissues were weighed and counted along with dose standards in a Packard Cobra II Auto-Gamma Counter. The raw counts were decay corrected, and the counts were normalized as the percent of total injected dose per gram of tissue (% ID/g). A comparison of the uptake of activity in the tissues at each time point was analyzed using a 1-way ANOVA (GraphPad Prism software package).

[1] = 5 min after injection, listed as [^18F]N-MeFAMP (5b)
[2] = 5 min after injection, listed as [^18F]FAMP (5a)
[3] = 120 min after injection, listed as [^18F]FAMP (5a)

CNC(C)(CF)C(=O)O (racemic) [[^18F]5b, 3-fluoro-2-methyl-2-(methylamino)propanoic acid]
Tissue distribution of radioactivity, Blood (5 min after injection): 0.61 ± 0.02 percent dose per gram
Tissue distribution of radioactivity, Bone (5 min after injection): 0.34 ± 0.04 percent dose per gram
Tissue distribution of radioactivity, Brain (5 min after injection): 0.04 ± 0.005 percent dose per gram
Tissue distribution of radioactivity, Heart (5 min after injection): 0.22 ± 0.01 percent dose per gram
Tissue distribution of radioactivity, Kidney (5 min after injection): 8.12 percent dose per gram
Tissue distribution of radioactivity, Liver (5 min after injection): 0.79 ± 0.06 percent dose per gram
Tissue distribution of radioactivity, Lung (5 min after injection): 0.53 ± 0.03 percent dose per gram
Tissue distribution of radioactivity, Muscle (5 min after injection): 0.16 ± 0.008 percent dose per gram
Tissue distribution of radioactivity, Pancreas (5 min after injection): 2.73 percent dose per gram
Tissue distribution of radioactivity, Spleen (5 min after injection): 0.44 ± 0.06 percent dose per gram
Tissue distribution of radioactivity, Testis (5 min after injection): 0.17 ± 0.004 percent dose per gram
Tissue distribution of radioactivity, Kidney [1]: 8.12 ± 0.62 percent dose per gram
Tissue distribution of radioactivity, Pancreas [1]: 2.73 ± 0.28 percent dose per gram
Tissue distribution of radioactivity, Blood (30 min after injection): 0.30 ± 0.003 percent dose per gram
Tissue distribution of radioactivity, Bone (30 min after injection): 0.32 ± 0.04 percent dose per gram
Tissue distribution of radioactivity, Brain (30 min after injection): 0.04 ± 0.004 percent dose per gram
Tissue distribution of radioactivity, Heart (30 min after injection): 0.23 ± 0.03 percent dose per gram
Tissue distribution of radioactivity, Kidney (30 min after injection): 4.60 ± 0.70 percent dose per gram
Tissue distribution of radioactivity, Liver (30 min after injection): 0.72 ± 0.09 percent dose per gram
Tissue distribution of radioactivity, Lung (30 min after injection): 0.50 ± 0.07 percent dose per gram
Tissue distribution of radioactivity, Muscle (30 min after injection): 0.16 ± 0.003 percent dose per gram
Tissue distribution of radioactivity, Pancreas (30 min after injection): 3.00 ± 0.23 percent dose per gram
Tissue distribution of radioactivity, Spleen (30 min after injection): 0.75 ± 0.06 percent dose per gram
Tissue distribution of radioactivity, Testis (30 min after injection): 0.11 ± 0.005 percent dose per gram
Tissue distribution of radioactivity, Blood (60 min after injection): 0.18 ± 0.02 percent dose per gram
Tissue distribution of radioactivity, Bone (60 min after injection): 0.29 ± 0.04 percent dose per gram
Tissue distribution of radioactivity, Brain (60 min after injection): 0.03 ± 0.003 percent dose per gram
Tissue distribution of radioactivity, Heart (60 min after injection): 0.20 ± 0.02 percent dose per gram
Tissue distribution of radioactivity, Kidney (60 min after injection): 2.73 ± 0.35 percent dose per gram
Tissue distribution of radioactivity, Liver (60 min after injection): 0.78 ± 0.10 percent dose per gram
Tissue distribution of radioactivity, Lung (60 min after injection): 0.38 ± 0.07 percent dose per gram
Tissue distribution of radioactivity, Muscle (60 min after injection): 0.15 ± 0.007 percent dose per gram
Tissue distribution of radioactivity, Pancreas (60 min after injection): 3.24 ± 0.30 percent dose per gram
Tissue distribution of radioactivity, Spleen (60 min after injection): 0.68 ± 0.02 percent dose per gram
Tissue distribution of radioactivity, Testis (60 min after injection): 0.08 ± 0.005 percent dose per gram
Tissue distribution of radioactivity, Blood (120 min after injection): 0.10 ± 0.007 percent dose per gram
Tissue distribution of radioactivity, Bone (120 min after injection): 0.20 ± 0.02 percent dose per gram
Tissue distribution of radioactivity, Brain (120 min after injection): 0.03 ± 0.001 percent dose per gram
Tissue distribution of radioactivity, Heart (120 min after injection): 0.17 ± 0.02 percent dose per gram
Tissue distribution of radioactivity, Kidney (120 min after injection): 1.36 ± 0.27 percent dose per gram
Tissue distribution of radioactivity, Liver (120 min after injection): 0.58 ± 0.11 percent dose per gram
Tissue distribution of radioactivity, Lung (120 min after injection): 0.30 ± 0.08 percent dose per gram
Tissue distribution of radioactivity, Muscle (120 min after injection): 0.13 ± 0.007 percent dose per gram
Tissue distribution of radioactivity, Pancreas (120 min after injection): 2.88 ± 0.40 percent dose per gram
Tissue distribution of radioactivity, Spleen (120 min after injection): 0.47 ± 0.04 percent dose per gram
Tissue distribution of radioactivity, Testis (120 min after injection): 0.06 ± 0.005 percent dose per gram
brain uptake of radioactivity (normal rats): approximately 0.04 % ID/g

CC(N)(CF)C(=O)O (racemic) [[^18F]5a, 2-amino-3-fluoro-2-methylpropanoic acid]
Tissue distribution of radioactivity, Blood (5 min after injection): 0.53 ± 0.03 percent dose per gram
Tissue distribution of radioactivity, Bone (5 min after injection): 0.27 ± 0.005 percent dose per gram
Tissue distribution of radioactivity, Brain (5 min after injection): 0.04 ± 0.003 percent dose per gram
Tissue distribution of radioactivity, Heart (5 min after injection): 0.29 ± 0.012 percent dose per gram
Tissue distribution of radioactivity, Kidney (5 min after injection): 6.36 percent dose per gram
Tissue distribution of radioactivity, Liver (5 min after injection): 0.65 percent dose per gram
Tissue distribution of radioactivity, Lung (5 min after injection): 0.55 ± 0.006 percent dose per gram
Tissue distribution of radioactivity, Muscle (5 min after injection): 0.22 ± 0.013 percent dose per gram
Tissue distribution of radioactivity, Pancreas (5 min after injection): 3.46 percent dose per gram
Tissue distribution of radioactivity, Spleen (5 min after injection): 0.83 ± 0.05 percent dose per gram
Tissue distribution of radioactivity, Testis (5 min after injection): 0.17 ± 0.010 percent dose per gram
Tissue distribution of radioactivity, Kidney [2]: 6.36 ± 0.36 percent dose per gram
Tissue distribution of radioactivity, Liver [2]: 0.65 ± 0.05 percent dose per gram
Tissue distribution of radioactivity, Pancreas [2]: 3.46 ± 0.19 percent dose per gram
Tissue distribution of radioactivity, Blood (30 min after injection): 0.25 ± 0.014 percent dose per gram
Tissue distribution of radioactivity, Bone (30 min after injection): 0.22 ± 0.02 percent dose per gram
Tissue distribution of radioactivity, Brain (30 min after injection): 0.05 ± 0.004 percent dose per gram
Tissue distribution of radioactivity, Heart (30 min after injection): 0.29 ± 0.04 percent dose per gram
Tissue distribution of radioactivity, Kidney (30 min after injection): 5.59 ± 0.28 percent dose per gram
Tissue distribution of radioactivity, Liver (30 min after injection): 0.56 ± 0.04 percent dose per gram
Tissue distribution of radioactivity, Lung (30 min after injection): 0.54 ± 0.12 percent dose per gram
Tissue distribution of radioactivity, Muscle (30 min after injection): 0.22 ± 0.009 percent dose per gram
Tissue distribution of radioactivity, Pancreas (30 min after injection): 2.93 ± 0.20 percent dose per gram
Tissue distribution of radioactivity, Spleen (30 min after injection): 0.54 ± 0.03 percent dose per gram
Tissue distribution of radioactivity, Testis (30 min after injection): 0.10 ± 0.006 percent dose per gram
Tissue distribution of radioactivity, Blood (60 min after injection): 0.22 ± 0.02 percent dose per gram
Tissue distribution of radioactivity, Bone (60 min after injection): 0.19 ± 0.03 percent dose per gram
Tissue distribution of radioactivity, Brain (60 min after injection): 0.06 ± 0.004 percent dose per gram
Tissue distribution of radioactivity, Heart (60 min after injection): 0.28 ± 0.013 percent dose per gram
Tissue distribution of radioactivity, Kidney (60 min after injection): 4.74 ± 0.15 percent dose per gram
Tissue distribution of radioactivity, Liver (60 min after injection): 0.50 ± 0.013 percent dose per gram
Tissue distribution of radioactivity, Lung (60 min after injection): 0.44 ± 0.05 percent dose per gram
Tissue distribution of radioactivity, Muscle (60 min after injection): 0.26 ± 0.02 percent dose per gram
Tissue distribution of radioactivity, Pancreas (60 min after injection): 2.95 ± 0.27 percent dose per gram
Tissue distribution of radioactivity, Spleen (60 min after injection): 0.50 ± 0.04 percent dose per gram
Tissue distribution of radioactivity, Testis (60 min after injection): 0.12 ± 0.006 percent dose per gram
Tissue distribution of radioactivity, Blood (120 min after injection): 0.15 ± 0.005 percent dose per gram
Tissue distribution of radioactivity, Bone (120 min after injection): 0.13 ± 0.012 percent dose per gram
Tissue distribution of radioactivity, Brain (120 min after injection): 0.05 ± 0.001 percent dose per gram
Tissue distribution of radioactivity, Heart (120 min after injection): 0.23 ± 0.03 percent dose per gram
Tissue distribution of radioactivity, Kidney (120 min after injection): 2.97 percent dose per gram
Tissue distribution of radioactivity, Liver (120 min after injection): 0.48 percent dose per gram
Tissue distribution of radioactivity, Lung (120 min after injection): 0.37 ± 0.10 percent dose per gram
Tissue distribution of radioactivity, Muscle (120 min after injection): 0.19 ± 0.003 percent dose per gram
Tissue distribution of radioactivity, Pancreas (120 min after injection): 2.48 percent dose per gram
Tissue distribution of radioactivity, Spleen (120 min after injection): 0.33 ± 0.02 percent dose per gram
Tissue distribution of radioactivity, Testis (120 min after injection): 0.10 ± 0.004 percent dose per gram
Tissue distribution of radioactivity, Kidney [3]: 2.97 ± 0.17 percent dose per gram
Tissue distribution of radioactivity, Liver [3]: 0.48 ± 0.03 percent dose per gram
Tissue distribution of radioactivity, Pancreas [3]: 2.48 ± 0.03 percent dose per gram
uptake of radioactivity in heart, lung, bone, blood, muscle and testis (normal rats, 5 minutes): < 0.55 % ID/g
brain uptake of radioactivity (normal rats): approximately 0.05 % ID/g
